Laboratory results as given in patent US12391641B2, “Prostaglandin EP4 receptor antagonist compounds” (NXERA PHARMA UK LIMITED, priority 2019, dated 2025).

What follows are molecules tested against T1, Human prostaglandin E2 receptor 4 (EP4) (Homo sapiens, UniProt P35408) (assay: cAMP Gs Functional Assay (HTRF cAMP dynamic-2), antagonism of PGE2). Settings: HEK293 cells transfected with EP4 BacMam virus; PGE2 challenge at EC80 (7 nM); pIC50 converted to functional pKb with a modified Cheng Prussoff equation; read-out: Human EP4 fpKb (converted).
T1 construct: expressed in transfected cells; host or cells: HEK293 cells transduced with EP4 BacMam virus
T1 sequence (P35408 whole entry): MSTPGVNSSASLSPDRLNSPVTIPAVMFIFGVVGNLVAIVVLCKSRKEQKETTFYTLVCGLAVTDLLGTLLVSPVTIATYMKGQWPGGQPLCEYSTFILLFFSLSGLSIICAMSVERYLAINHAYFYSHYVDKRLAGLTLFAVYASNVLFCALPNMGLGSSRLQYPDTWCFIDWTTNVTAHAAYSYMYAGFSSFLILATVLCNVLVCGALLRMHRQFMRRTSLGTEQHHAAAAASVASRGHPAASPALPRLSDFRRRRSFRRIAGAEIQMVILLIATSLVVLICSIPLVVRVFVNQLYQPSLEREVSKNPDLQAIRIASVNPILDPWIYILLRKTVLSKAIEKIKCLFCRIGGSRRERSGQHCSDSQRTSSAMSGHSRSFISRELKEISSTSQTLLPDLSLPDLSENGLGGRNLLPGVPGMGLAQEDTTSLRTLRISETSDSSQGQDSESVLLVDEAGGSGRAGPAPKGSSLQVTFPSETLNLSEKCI
Format: cell-based
Method: Cloning, Baculovirus generation, large scale infection of HEK293 cells and membrane preparation: Human prostaglandin E2 receptor 4 (EP4) was cloned into pBacMam expression vector (GeneScript, UK). Transposition of EP4 DNA was performed using Invitrogen's Bac-to-Bac Baculovirus Expression Systems. P0 baculovirus was generated by transfecting SF9 Cells with bacmid DNA using Cellfectin II transfection reagent (ThermoFisher Scientific, UK, catalog number 10362-100). Following P0 generation P1 virus was then generated ready for large scale infection and membrane preparation. HEK293 cells were grown in DMEM+Glutamax, supplemented with 10% heat inactivated fetal bovine serum (FBS). Cells were infected at a seeding density of 3.5 million cells/mL in 500 cm^3 flasks at 5% v/v EP4 Bacman. Expression was carried out over 36 hr period at 37° C. with 5% CO2. The cells were removed using PBS and a cell scrapper. The cell culture was centrifuged at 2500 RPM for 10 mins at 4° C. The supernatant was then poured off and the pellet stored at −80° C. The pellet was defrosted and re-suspended in 15 mL of homogenising buffer (20 mM HEPES, 10 mM EDTA, pH 7.4). Then homogenised in mechanical homogeniser (VMR) for 10 seconds. The membrane was centrifuged in centrifuge tubes at 40,000 g for 15 mins at 4° C. The supernatant was poured away and re-suspended in 15 mL of homogenising buffer. Homogenised for 20 seconds. The membrane was centrifuged at 40,000 g for 45 mins at 4° C. The membrane was re-suspended in 3 mL of storage buffer (20 mM HEPES, 0.1 mM EDTA, pH 7.4) mixing well. The resulting membranes were then stored at −80° C.
cAMP Gs Functional Assay: cAMP production following EP4 receptor activation was determined using the Homogeneous Time-Resolved Fluorescence (HTRF) cAMP dynamic-2 assay (Cisbio, France). HEK293 cells were transfected using a 0.5% EP4 Bacman virus for 36 hours, before dissociating the cells, and freezing at […].
On the day of testing, increasing concentration of test compounds, alongside positive controls (1 uM ONO-AE3-208) and negative control (DMSO (Sigma-Aldrich, UK) were added to a ProxiPlate-384 Plus, White 384-shallow well Mircoplate, (PerkinElmer, USA) using the ECHO dispense.
Cells were defrosted in a water bath and resuspended in DMEM supplemented with 10% FBS before centrifuging at 1200 RPM for 5 mins to form a pellet. The pellet was resuspended in assay buffer (DMEM+0.5 mM IBMX (Tocris, Abingdon, UK, Catalog Number 2845)) to a 1×10^6 cells/mL. Cell suspension, for a final assay concentration of 5000 cell/well was added using the multidrop to the pre-dispensed assay plate. The plate was then incubated at 37° C. for 30 mins, with 5% CO2. After incubation, EC80 concentration (7 nM) of PGE2 (EP4 agonist) was added to the plate. In parallel, a PGE2 dose-response curve was dispense to a separate plate. Assay buffer was then dispensed on top. The cAMP production was determined as manufacturer's instructions, before plates were read on a PheraStar fluorescence plate reader (BMG LabTech, Germany).
The pIC50 was converted to a functional pKb value using a modified Cheng Prussoff equation where Kd=agonist EC50 and Lhot=agonist challenge concentration;
With `CC(C)[C@@H](OCc1cccc(OC(F)(F)F)c1)C(=O)N[C@@H](C)c1ccc(C(=O)O)cc1` [Example 20, 4-((S)-1-((R)-3-methyl-2-((3-(trifluoromethoxy)benzyl)oxy)butanamido)ethyl)benzoic acid] the Ki was 0.0955 nM.
Molecule `CC(C)[C@@H](OCc1ccc(C#N)cc1)C(=O)N[C@@H](C)c1ccc(C(=O)O)cc1` [Example 21, 4-((S)-1-((R)-2-((4-cyanobenzyl)oxy)-3-methylbutanamido)ethyl)benzoic acid] has a Ki of 33.1 nM.
`CC(C)[C@@H](OCc1cccc(C#N)c1)C(=O)N[C@@H](C)c1ccc(C(=O)O)cc1` [Example 22, 4-((S)-1-((R)-2-((3-cyanobenzyl)oxy)-3-methylbutanamido)ethyl)benzoic acid] was tested, and the Ki was 7.24 nM.
Work on `CC(C)[C@@H](OCc1ccc(OC(F)F)cc1)C(=O)N[C@@H](C)c1ccc(C(=O)O)cc1` [Example 23, 4-((S)-1-((R)-2-((4-(difluoromethoxy)benzyl)oxy)-3-methylbutanamido)ethyl)benzoic acid] yielded a Ki of 14.5 nM.
With `CC(C)[C@@H](OCc1cccc(OC(F)F)c1)C(=O)N[C@@H](C)c1ccc(C(=O)O)cc1` [Example 24, 4-((S)-1-((R)-2-((3-(difluoromethoxy)benzyl)oxy)-3-methylbutanamido)ethyl)benzoic acid] the Ki was 0.302 nM.
For `CC(C)[C@@H](OCc1ccc(C(F)(F)F)cn1)C(=O)N[C@@H](C)c1ccc(C(=O)O)cc1` [Example 25, 4-((S)-1-((R)-3-methyl-2-((5-(trifluoromethyl)pyridin-2-yl)methoxy)butanamido)ethyl)benzoic acid], the Ki was 13.8 nM.
With `CC(C)[C@@H](OCc1ccc(S(F)(F)(F)(F)F)cc1)C(=O)N[C@@H](C)c1ccc(C(=O)O)cc1` [Example 26, 4-((S)-1-((R)-3-methyl-2-((4-(pentafluoro-λ^6-sulfaneyl)benzyl)oxy)butanamido)ethyl)benzoic acid] the Ki was 27.5 nM.
`CC(C)[C@@H](OCc1ccc(F)c(F)c1)C(=O)N[C@@H](C)c1ccc(C(=O)O)cc1` [Example 27, 4-((S)-1-((R)-2-((3,4-difluorobenzyl)oxy)-3-methylbutanamido)ethyl)benzoic acid] was tested, and the Ki was 1.91 nM.
`CC(C)[C@@H](OCc1ccc2c(c1)OC(F)(F)O2)C(=O)N[C@@H](C)c1ccc(C(=O)O)cc1` [Example 28, 4-((S)-1-((R)-2-((2,2-difluorobenzo[d][1,3]dioxol-5-yl)methoxy)-3-methylbutanamido)ethyl)benzoic acid] was tested, and the Ki was 0.151 nM.
For `CC(C)[C@@H](OCc1ccc(C(F)F)c(F)c1)C(=O)N[C@@H](C)c1ccc(C(=O)O)cc1` [Example 29, 4-((S)-1-((R)-2-((4-(difluoromethyl)-3-fluorobenzyl)oxy)-3-methylbutanamido)ethyl)benzoic acid], the Ki was 0.603 nM.
Work on `CC(C)[C@@H](OCc1ccc(C2CC2)cc1)C(=O)N[C@@H](C)c1ccc(C(=O)O)cc1` [Example 30, 4-((S)-1-((R)-2-((4-cyclopropylbenzyl)oxy)-3-methylbutanamido)ethyl)benzoic acid] yielded a Ki of 5.37 nM.
`CC(C)[C@@H](OCc1ccc(F)cc1)C(=O)NC1(c2ccc(C(=O)O)cc2)CC1` [Example 31, (R)-4-(1-(2-((4-fluorobenzyl)oxy)-3-methylbutanamido)cyclopropyl)benzoic acid] was tested, and the Ki was 2.24 nM.
With `CC(C)[C@@H](OCc1ccc(F)c(OC(F)F)c1)C(=O)N[C@@H](C)c1ccc(C(=O)O)cc1` [Example 32, 4-((S)-1-((R)-2-((3-(difluoromethoxy)-4-fluorobenzyl)oxy)-3-methylbutanamido)ethyl)benzoic acid] the Ki was 0.224 nM.
`CC(C)[C@@H](OCc1cccc(S(C)(=O)=O)c1)C(=O)NC1(c2ccc(C(=O)O)cc2)CC1` [Example 33, (R)-4-(1-(3-methyl-2-((3-(methylsulfonyl)benzyl)oxy)butanamido)cyclopropyl)benzoic acid] was tested, and the Ki was 14.5 nM.
`CC(C)[C@@H](OCc1ccc(C(F)F)cn1)C(=O)N[C@@H](C)c1ccc(C(=O)O)cc1` [Example 34, 4-((S)-1-((R)-2-((5-(difluoromethyl)pyridin-2-yl)methoxy)-3-methylbutanamido)ethyl)benzoic acid] showed a Ki of 20.9 nM.
With `CC(C)[C@@H](OCc1ccc(F)c(S(C)(=O)=O)c1)C(=O)N[C@@H](C)c1ccc(C(=O)O)cc1` [Example 35, 4-((S)-1-((R)-2-((4-fluoro-3-(methylsulfonyl)benzyl)oxy)-3-methylbutanamido)ethyl)benzoic acid] the Ki was 7.41 nM.
Molecule `Cc1cc([C@H](C)NC(=O)[C@H](OCc2ccc(C(F)(F)F)cc2)C(C)C)ccc1C(=O)O` [Example 36, 2-methyl-4-((S)-1-((R)-3-methyl-2-((4-(trifluoromethyl)benzyl)oxy)butanamido)ethyl)benzoic acid] has a Ki of 25.7 nM.
With `CC(C)[C@@H](OCc1ccc(F)c(F)c1)C(=O)NC1(c2ccc(C(=O)O)cc2)CC1` [Example 37, (R)-4-(1-(2-((3,4-difluorobenzyl)oxy)-3-methylbutanamido)cyclopropyl)benzoic acid] the Ki was 1.23 nM.
With `CC(C)[C@@H](OCc1cccc(O)c1)C(=O)N[C@@H](C)c1ccc(C(=O)O)cc1` [Example 38, 4-((S)-1-((R)-2-((3-hydroxybenzyl)oxy)-3-methylbutanamido)ethyl)benzoic acid] the Ki was greater than 4680 nM.
Work on `CC(C)[C@@H](OCc1cccc(C2CC2)c1)C(=O)N[C@@H](C)c1ccc(C(=O)O)cc1` [Example 39, 4-((S)-1-((R)-2-((3-cyclopropylbenzyl)oxy)-3-methylbutanamido)ethyl)benzoic acid] yielded a Ki of 0.229 nM.
`COCc1cccc(CO[C@@H](C(=O)N[C@@H](C)c2ccc(C(=O)O)cc2)C(C)C)c1` [Example 40, 4-((S)-1-((R)-2-((3-(methoxymethyl)benzyl)oxy)-3-methylbutanamido)ethyl)benzoic acid] showed a Ki of 1.66 nM.
With `CC(C)[C@@H](OCc1ccc(O)cc1)C(=O)N[C@@H](C)c1ccc(C(=O)O)cc1` [Example 41, 4-((S)-1-((R)-2-((4-hydroxybenzyl)oxy)-3-methylbutanamido)ethyl)benzoic acid] the Ki was greater than 12900 nM.
Molecule `CC(C)[C@@H](OCc1ccc(F)cc1)C(=O)N[C@@H](C)c1ccc(-c2nnn[nH]2)cc1` [Example 42, (R)—N—((S)-1-(4-(1H-tetrazol-5-yl)phenyl)ethyl)-2-((4-fluorobenzyl)oxy)-3-methylbutanamide] has a Ki of 1.74 nM.
In the case of `CC(C)[C@@H](OCc1ccc(C(F)(F)F)cc1)C(=O)N[C@@H](C)c1ccc(-c2nnn[nH]2)cc1` [Example 43, (R)—N—((S)-1-(4-(1H-tetrazol-5-yl)phenyl)ethyl)-3-methyl-2-((4-(trifluoromethyl)benzyl)oxy)butanamide], the Ki is reported as 0.501 nM.
With `CC(C)[C@@H](OCc1cccc(CO)c1)C(=O)N[C@@H](C)c1ccc(C(=O)O)cc1` [Example 45, 4-((S)-1-((R)-2-((3-(hydroxymethyl)benzyl)oxy)-3-methylbutanamido)ethyl)benzoic acid] the Ki was 10 nM.
Molecule `CC(C)[C@@H](OCc1cccc(Cl)c1)C(=O)NC1(c2ccc(C(=O)O)cc2)CC1` [Example 50, (R)-4-(1-(2-((3-chlorobenzyl)oxy)-3-methylbutanamido)cyclopropyl)benzoic acid] has a Ki greater than 12900 nM.
`CC(C)[C@@H](OCc1cccc(OC(F)F)c1)C(=O)NC1(c2ccc(C(=O)O)cc2)CC1` [Example 52, (R)-4-(1-(2-((3-(difluoromethoxy)benzyl)oxy)-3-methylbutanamido)cyclopropyl)benzoic acid] gave a Ki of 0.389 nM.
